Test [1] deals with T1, Muscarinic acetylcholine receptor M1 (Homo sapiens, UniProt P11229).
T1 sequence (P11229 whole entry): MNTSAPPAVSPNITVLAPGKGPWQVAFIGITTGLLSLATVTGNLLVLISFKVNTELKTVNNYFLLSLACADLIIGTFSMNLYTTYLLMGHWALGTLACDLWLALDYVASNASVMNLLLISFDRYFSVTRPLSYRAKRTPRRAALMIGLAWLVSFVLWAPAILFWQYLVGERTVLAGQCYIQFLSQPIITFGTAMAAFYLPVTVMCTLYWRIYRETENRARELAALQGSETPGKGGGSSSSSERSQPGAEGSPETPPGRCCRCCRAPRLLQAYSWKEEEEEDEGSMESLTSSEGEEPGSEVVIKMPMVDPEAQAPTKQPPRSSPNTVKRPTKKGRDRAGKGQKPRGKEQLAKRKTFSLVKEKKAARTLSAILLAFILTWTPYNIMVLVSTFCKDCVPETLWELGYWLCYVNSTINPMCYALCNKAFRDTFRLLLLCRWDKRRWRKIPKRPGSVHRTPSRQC
Type of test: functional, cell-based.

Test [2] has as its target T1, Muscarinic acetylcholine receptor M1. The class given is functional, cell-based. The source holds these as a separate data set.
Test [3] deals with T2, Type-2 angiotensin II receptor (Homo sapiens, UniProt P50052). The class given is functional.
In test [4] the target is Hydroxycarboxylic acid receptor 2 (Homo sapiens, UniProt Q8TDS4).
The target of test [5] is T3, Type-1 angiotensin II receptor (Homo sapiens, UniProt P30556).
T3 sequence (P30556 whole entry): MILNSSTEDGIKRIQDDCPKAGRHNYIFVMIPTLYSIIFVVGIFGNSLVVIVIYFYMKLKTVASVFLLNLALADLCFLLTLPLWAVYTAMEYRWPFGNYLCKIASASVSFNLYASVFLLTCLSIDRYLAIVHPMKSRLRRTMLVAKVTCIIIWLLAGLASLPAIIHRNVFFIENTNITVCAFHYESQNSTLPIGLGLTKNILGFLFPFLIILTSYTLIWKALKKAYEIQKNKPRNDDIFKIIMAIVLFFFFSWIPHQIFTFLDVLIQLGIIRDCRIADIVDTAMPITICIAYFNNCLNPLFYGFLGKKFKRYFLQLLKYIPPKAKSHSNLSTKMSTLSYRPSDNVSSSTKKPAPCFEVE

In a further test the target is T4, Substance-K receptor (Homo sapiens, UniProt P21452).
T4 sequence (P21452 whole entry): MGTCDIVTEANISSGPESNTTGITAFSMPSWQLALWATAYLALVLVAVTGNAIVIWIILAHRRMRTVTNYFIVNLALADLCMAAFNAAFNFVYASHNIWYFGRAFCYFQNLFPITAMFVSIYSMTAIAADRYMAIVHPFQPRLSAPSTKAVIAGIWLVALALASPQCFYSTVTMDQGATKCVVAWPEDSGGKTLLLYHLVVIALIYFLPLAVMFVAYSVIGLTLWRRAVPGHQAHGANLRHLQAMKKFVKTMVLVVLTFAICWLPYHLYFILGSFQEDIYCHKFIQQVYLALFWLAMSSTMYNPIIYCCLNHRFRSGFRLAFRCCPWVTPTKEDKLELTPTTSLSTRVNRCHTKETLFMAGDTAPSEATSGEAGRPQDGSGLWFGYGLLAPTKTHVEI

Test [6] deals with Sodium-dependent serotonin transporter (Homo sapiens, UniProt P31645).
Test [7] deals with Voltage-dependent L-type calcium channel subunit alpha-1C (Homo sapiens, UniProt Q13936). The class given is functional, cell-based.
Test [8] addresses T1, Muscarinic acetylcholine receptor M1.
Test [9] has as its target T2, Type-2 angiotensin II receptor. Type of test: functional. This is another data set of the same source.
Test [10] deals with T3, Type-1 angiotensin II receptor. The source holds these as a separate data set.
Test [11] addresses 5-hydroxytryptamine receptor 2B (Homo sapiens, UniProt P41595).
In test [12] the target is T5, Alpha-2A adrenergic receptor (Homo sapiens, UniProt P08913).
T5 sequence (P08913 whole entry): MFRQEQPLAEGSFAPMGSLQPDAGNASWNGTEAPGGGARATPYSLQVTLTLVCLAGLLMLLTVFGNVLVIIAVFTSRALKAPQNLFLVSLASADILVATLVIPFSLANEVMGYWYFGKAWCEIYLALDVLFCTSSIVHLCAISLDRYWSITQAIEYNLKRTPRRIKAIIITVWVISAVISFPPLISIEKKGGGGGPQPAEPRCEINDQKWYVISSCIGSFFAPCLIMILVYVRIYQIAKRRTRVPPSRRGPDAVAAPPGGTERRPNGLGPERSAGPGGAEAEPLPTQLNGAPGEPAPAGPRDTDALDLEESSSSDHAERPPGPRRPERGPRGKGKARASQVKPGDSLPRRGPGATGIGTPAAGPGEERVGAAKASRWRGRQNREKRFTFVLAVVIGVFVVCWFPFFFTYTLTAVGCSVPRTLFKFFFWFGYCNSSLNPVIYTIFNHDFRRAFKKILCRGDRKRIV

For a further test, the target named is D(1A) dopamine receptor (Homo sapiens, UniProt P21728). The class given is functional, cell-based.
Further: assay procedure not described here.

T2 sequence (P50052 whole entry): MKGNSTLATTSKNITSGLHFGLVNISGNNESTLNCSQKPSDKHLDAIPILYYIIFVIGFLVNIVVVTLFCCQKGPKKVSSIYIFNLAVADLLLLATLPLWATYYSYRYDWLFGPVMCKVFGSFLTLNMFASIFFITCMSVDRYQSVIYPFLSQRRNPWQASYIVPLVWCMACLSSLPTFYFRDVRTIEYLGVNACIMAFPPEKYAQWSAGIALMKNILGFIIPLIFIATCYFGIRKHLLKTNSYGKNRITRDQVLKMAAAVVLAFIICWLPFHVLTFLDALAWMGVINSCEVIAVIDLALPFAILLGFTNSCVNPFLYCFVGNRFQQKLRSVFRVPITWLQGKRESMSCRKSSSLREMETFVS
Chain of 5-hydroxytryptamine receptor 2B (P41595 whole entry): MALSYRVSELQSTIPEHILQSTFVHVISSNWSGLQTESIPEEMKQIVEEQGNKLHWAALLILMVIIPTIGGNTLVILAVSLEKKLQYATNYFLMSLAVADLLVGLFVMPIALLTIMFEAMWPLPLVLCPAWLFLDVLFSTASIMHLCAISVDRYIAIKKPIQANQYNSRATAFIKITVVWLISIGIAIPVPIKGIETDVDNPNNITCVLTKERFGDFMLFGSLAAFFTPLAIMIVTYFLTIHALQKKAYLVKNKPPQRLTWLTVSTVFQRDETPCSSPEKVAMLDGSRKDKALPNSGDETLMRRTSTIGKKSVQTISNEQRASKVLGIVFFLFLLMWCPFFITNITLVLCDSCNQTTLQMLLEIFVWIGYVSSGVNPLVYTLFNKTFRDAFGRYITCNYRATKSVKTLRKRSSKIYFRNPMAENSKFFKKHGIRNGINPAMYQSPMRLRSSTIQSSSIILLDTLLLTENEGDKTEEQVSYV
Chain of D(1A) dopamine receptor (P21728 whole entry): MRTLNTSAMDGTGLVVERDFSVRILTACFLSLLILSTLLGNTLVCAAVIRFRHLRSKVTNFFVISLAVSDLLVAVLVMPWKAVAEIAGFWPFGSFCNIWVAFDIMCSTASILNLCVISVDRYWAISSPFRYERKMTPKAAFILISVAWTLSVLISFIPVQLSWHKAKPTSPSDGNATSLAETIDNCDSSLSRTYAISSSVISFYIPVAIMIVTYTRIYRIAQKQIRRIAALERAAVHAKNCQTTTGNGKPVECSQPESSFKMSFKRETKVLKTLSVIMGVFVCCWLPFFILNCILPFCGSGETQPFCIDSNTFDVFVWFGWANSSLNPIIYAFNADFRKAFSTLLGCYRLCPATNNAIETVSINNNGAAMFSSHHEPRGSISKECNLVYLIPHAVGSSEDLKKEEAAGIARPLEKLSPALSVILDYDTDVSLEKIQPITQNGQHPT
Chain of Voltage-dependent L-type calcium channel subunit alpha-1C (Q13936 whole entry): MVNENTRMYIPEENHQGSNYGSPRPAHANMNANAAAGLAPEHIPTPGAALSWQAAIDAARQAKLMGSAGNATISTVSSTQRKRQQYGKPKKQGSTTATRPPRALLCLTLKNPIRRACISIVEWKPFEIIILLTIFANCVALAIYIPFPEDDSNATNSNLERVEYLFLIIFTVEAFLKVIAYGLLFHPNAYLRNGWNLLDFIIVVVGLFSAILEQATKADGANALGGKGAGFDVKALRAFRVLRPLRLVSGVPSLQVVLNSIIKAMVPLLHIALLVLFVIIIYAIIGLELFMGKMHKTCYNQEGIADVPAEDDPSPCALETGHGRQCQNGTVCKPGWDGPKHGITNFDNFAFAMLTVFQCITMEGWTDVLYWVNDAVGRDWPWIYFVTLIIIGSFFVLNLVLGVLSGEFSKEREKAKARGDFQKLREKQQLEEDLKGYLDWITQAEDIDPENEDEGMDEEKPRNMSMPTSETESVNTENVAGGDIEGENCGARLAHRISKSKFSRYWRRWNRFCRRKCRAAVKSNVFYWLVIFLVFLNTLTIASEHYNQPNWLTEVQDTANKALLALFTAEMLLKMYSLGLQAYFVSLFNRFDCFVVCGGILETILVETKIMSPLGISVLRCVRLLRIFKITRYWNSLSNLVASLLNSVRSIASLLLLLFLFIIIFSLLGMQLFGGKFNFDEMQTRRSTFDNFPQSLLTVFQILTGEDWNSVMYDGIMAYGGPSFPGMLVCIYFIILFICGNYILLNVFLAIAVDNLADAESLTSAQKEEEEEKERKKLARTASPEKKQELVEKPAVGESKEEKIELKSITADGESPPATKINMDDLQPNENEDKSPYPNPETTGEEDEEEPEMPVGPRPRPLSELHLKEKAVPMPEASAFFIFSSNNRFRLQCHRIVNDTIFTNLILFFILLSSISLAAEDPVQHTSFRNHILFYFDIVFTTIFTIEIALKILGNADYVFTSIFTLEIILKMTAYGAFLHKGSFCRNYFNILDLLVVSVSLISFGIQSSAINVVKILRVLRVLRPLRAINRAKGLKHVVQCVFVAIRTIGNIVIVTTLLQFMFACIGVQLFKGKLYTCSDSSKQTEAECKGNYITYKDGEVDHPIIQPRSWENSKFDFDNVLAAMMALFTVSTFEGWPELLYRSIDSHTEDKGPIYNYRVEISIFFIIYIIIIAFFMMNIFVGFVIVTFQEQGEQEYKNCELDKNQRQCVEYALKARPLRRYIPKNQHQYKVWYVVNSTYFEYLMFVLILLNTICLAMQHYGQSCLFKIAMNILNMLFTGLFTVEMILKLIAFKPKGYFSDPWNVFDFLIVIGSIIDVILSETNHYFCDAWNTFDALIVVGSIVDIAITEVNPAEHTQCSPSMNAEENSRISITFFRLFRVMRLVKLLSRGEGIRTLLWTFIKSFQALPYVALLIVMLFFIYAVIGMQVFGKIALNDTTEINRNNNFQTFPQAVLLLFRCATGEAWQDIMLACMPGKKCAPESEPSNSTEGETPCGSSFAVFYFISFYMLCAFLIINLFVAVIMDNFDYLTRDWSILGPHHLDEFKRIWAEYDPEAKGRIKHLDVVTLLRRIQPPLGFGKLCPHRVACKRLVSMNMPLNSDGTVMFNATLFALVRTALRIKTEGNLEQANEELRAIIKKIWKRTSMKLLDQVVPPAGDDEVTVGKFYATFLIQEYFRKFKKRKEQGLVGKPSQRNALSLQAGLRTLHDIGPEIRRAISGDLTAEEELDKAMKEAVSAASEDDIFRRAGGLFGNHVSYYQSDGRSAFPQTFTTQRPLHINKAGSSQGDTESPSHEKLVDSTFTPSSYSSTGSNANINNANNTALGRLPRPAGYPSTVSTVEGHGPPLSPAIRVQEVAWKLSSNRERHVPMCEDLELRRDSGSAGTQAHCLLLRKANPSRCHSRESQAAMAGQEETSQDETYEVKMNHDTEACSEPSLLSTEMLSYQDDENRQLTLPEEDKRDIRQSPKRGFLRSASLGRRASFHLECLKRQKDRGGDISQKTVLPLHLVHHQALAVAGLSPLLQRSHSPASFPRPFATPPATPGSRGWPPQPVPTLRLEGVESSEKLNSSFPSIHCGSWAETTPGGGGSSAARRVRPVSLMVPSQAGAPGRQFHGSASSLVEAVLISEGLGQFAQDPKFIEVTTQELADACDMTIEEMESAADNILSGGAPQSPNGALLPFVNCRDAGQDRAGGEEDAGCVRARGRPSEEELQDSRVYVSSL
Chain of Hydroxycarboxylic acid receptor 2 (Q8TDS4 whole entry): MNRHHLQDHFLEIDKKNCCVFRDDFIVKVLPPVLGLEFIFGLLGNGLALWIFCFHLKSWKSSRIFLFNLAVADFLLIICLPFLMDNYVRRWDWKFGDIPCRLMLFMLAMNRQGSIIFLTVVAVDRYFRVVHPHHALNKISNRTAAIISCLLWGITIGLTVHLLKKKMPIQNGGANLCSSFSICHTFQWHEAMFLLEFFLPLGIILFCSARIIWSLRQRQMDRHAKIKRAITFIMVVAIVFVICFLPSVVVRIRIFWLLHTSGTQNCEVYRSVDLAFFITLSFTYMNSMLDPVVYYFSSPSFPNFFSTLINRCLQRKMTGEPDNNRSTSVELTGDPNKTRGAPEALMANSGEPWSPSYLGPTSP
Chain of Sodium-dependent serotonin transporter (P31645 whole entry): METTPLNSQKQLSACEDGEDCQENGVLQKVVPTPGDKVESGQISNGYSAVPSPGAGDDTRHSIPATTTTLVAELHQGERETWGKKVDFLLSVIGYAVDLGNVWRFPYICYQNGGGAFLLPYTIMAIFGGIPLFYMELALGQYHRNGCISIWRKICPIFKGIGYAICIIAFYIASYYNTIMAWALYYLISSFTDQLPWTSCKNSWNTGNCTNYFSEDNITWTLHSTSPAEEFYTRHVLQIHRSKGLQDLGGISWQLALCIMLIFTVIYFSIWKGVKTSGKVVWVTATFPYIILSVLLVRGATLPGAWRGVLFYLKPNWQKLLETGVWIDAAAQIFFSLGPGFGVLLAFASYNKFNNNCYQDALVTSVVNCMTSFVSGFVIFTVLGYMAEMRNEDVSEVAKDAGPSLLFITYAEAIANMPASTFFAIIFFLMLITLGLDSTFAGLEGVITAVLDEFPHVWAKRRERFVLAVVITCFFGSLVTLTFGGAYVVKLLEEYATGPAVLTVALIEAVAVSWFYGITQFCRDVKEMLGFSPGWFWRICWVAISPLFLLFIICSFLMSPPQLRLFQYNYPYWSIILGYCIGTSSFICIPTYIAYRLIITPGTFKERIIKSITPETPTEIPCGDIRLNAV

Regarding `CC1OC2(CS1)CN1CCC2CC1` (stereo unspecified) [CEVIMELINE], the concentration at half-maximal activity (AC50) in test [1] was 19 µM; in test [2] it was more than 30 µM.
In turn, `CC(CCc1ccc(O)cc1)NCCc1ccc(O)c(O)c1` (stereo unspecified) [DOBUTAMINE] displayed a concentration at half-maximal activity (AC50) in test [3] of more than 100 µM.
The compound `CCC(=O)O[C@]1(C(=O)SCF)[C@H](C)C[C@H]2[C@@H]3C[C@H](F)C4=CC(=O)C=C[C@]4(C)[C@@]3(F)[C@@H](O)C[C@@]21C` [FLUTICASONE PROPIONATE] had an AC50 in test [4] of more than 10 µM.
In [5], `CC(C)NCC(O)c1ccc(O)c(O)c1` (stereo unspecified) [ISOPROTERENOL] showed an AC50 of more than 100 µM.
The compound `CN1CCN(C2=Nc3ccccc3Oc3ccc(Cl)cc32)CC1` [LOXAPINE] showed an AC50 at Substance-K receptor of more than 10 µM.
For `OC1(c2ccc(Cl)cc2)c2ccccc2C2=NCCN21` (stereo unspecified) [MAZINDOL], the half-maximal activity concentration (AC50) in test [6] was 230 nM; in test [7] it was more than 50 µM; on Substance-K receptor, more than 10 µM.
In [8], `O=[N+]([O-])c1ccc(O)c2ncccc12` [NITROXOLINE] yielded an AC50 of more than 30 µM.
`CCCc1nc(C(C)(C)O)c(C(=O)O)n1Cc1ccc(-c2ccccc2-c2nnn[nH]2)cc1` [OLMESARTAN]: the concentration at half-maximal activity (AC50) in test [9] is 54 µM; in test [10] it was 0.8 nM.
As for `CCCN[C@H]1CCc2nc(N)sc2C1` [PRAMIPEXOLE], the half-maximal activity concentration (AC50) in test [11] was determined as 18.4 µM.
With `C[C@H](Cc1cc2c(c(C(N)=O)c1)N(CCCO)CC2)NCCOc1ccccc1OCC(F)(F)F` [SILODOSIN], the AC50 in test [12] was found to be 6.2 µM.
Turning to `Cc1cc(C(C)(C)C)cc(C)c1CC1=NCCN1` [XYLOMETAZOLINE], the AC50 on D(1A) dopamine receptor is more than 30 µM; in test [12], 0.005 µM.

The record behind these values is ChEMBL document CHEMBL5291721, “A preclinical secondary pharmacology resource illuminates target-adverse drug reaction associations of marketed drugs” (Nat Commun, 2023).
